In PubChem BioAssay AID720604 (Broad Institute, 2013):
Results filed as inconclusive are left out.

Tested on: HUVEC viability, CellTiter-Glo ATP luminescence, 8-48 h
Assay: HUVEC endothelial cell viability loss, dose response, cytotoxicity control for HRAS target identification, CellTiter-Glo ATP luminescence, 8/24/48 h, dry powder (AID 720604)

Row | Compound | AC50 (measured here: 8 h treatment) [µM] | AC50 (measured here: 24 h treatment) [µM] | AC50 (measured here: 48 h treatment) [µM]
1 | COc1ccc(N(C(=O)CCl)C(C(=O)NCCc2ccccc2)c2cccs2)cc1Cl (stereo not given) | 25.4 | 5.53 | 5.1
2 | CC(C)(C)OC(=O)NCCOCCOCCOc1ccc(N(C(=O)CCl)C(C(=O)NCCc2ccccc2)c2cccs2)cc1Cl (stereo not given) | – | 7.15 | 7.2
